Source: US20180177849A1, “Therapeutic Uses of Elsiglutide” (HELSINN HEALTHCARE SA, priority 2015, published 2018)

What was measured:
[1] = test system: rats bearing colon tumors and xenografts bearing human colon carcinoma, HCT8 and HT-29; experiment: Antitumor activity in tumor-bearing rodents; format: in vivo; conditions: 5-FU/irinotecan alone
Experimental: (§1) Studies were carried out in normal rats, rats bearing colon tumors and xenografts bearing human colon carcinoma, HCT8 and HT-29. Studies were carried out to test the hypothesis that elsiglutide offers selective protection against 5-Fluorouvacil-(5-FU) and irinotecan-induced toxicities and potentially enhances their antitumor activity. Elsiglutide was administered subcutaneously at non-toxic but therapeutically-effective dose of 1.8 mg/kg/day daily for 4 days, 30 min prior to each 5-FU/irinotecan dose. The tested doses of 5-FU were 100 mg/kg (MTD) and 200 mg/kg, and the doses of irinotecan were 100 mg/kg (MTD) and 200 mg/kg, either daily ×3 or weekly ×4.

[2] = Protection against 5-FU- and irinotecan-induced toxicities; design: species or system mice and rats; conditions: in vivo; daily ×3 or weekly ×4
Experimental: as §1

Fischer rats [3] = experiment: Complete blood cell count (CBC) analysis of peripheral blood; format: in vivo, rat
Experimental: 8 to 12-week-old female Fischer 344/N rats (body weight 160-200 g) were obtained from Harlan Sprague Dawley Inc. (Indianapolis, Ind.).
Irinotecan was purchased as a ready-to-use formulation solution at a concentration of 20 mg/ml (100 mg in a 5 ml vial). For a rat of 150-200 g, an administration up to 2 ml solution (dose of 200 mg/kg/d×3) was required.
(§2) Elsiglutide was administered by subcutaneous (S.C) route at 1.8 mg/kg/day once a day for 4 days. Three doses were administered 30 minutes prior to each daily intravenous (I.V) dose of irinotecan. Only the fourth dose of elsiglutide was administered 24 hours after the last dose of irinotecan. Irinotecan was administered by intravenous (I.V) injection at the maximum tolerated and therapeutic dose, 100, 150, 200 mg/kg/day for 3 days.
Hematological (CBC) Analysis • Complete blood cell count (CBC) analysis (days 0, 4, and 9) • From peripheral blood 14 markers, WBC (differential: neutrophils, lymphocytes, eosinophils, monocytes, basophils) and RDW-SD, RBC, HGB, HCT, MCV, MCH, MCHC, and Platelets were analyzed.
The statistical analysis of complete blood cells (CBC) results was carried out. The differences between the mean values in the different treatment groups were analyzed for significance.
(§3) Treatment groups and time when specific acquisition of tissues was obtained are outlined below. Fischer Rats (Female), weighing 150 to 180 g (8-12 weeks) were utilized. • Control, histology, d 9 and CBC, baseline, day 4 and day 9 • Control vehicle, histology, d 9 and CBC baseline, d 4 and d 9 • Irinotecan 100 mg/kg/d×3, I.V., histology, d 9 and CBC, baseline, d 4 and d 9 • Irinotecan 150 mg/kg/d×3, I.V., histology, d 9 and CBC, baseline, d 4 and d 9, and CBC, baseline, d 4 and d 9 • Irinotecan 200 mg/kg/d×3, I.V., histology 9, and CBC, d 4 and d 9 • Elsiglutide 1.8 mg/kg/d×4, S.C., histology, d 9 and CBC, baseline, d 4 and d 9 • CBC, baseline, d 4 and d 9 • Elsiglutide 1.8 mg/d×4, S.C+Irinotecan 150 mg/kg/d×3, I.V, histology, d 9, and CBD baseline, d 4 and d9 • Elsiglutide 1.8 mg/d×4, S.C.+Irinotecan 200 mg/kg/d×3, I.V, histology, d 9, and CBC d 4 and d 9 Each treatment groups consisted of 10 rats for histology of bone marrow, spleen and peripheral blood analysis, and for survivors. Evaluation of peripheral blood was carried out on day zero (0), four (4) and day nine (9), bone marrow and spleen analysis after (necropsy) was carried out on day nine (9).

Fischer rats [4] = experiment: Survival / drug induced lethality; format: in vivo, rat; conditions: for rats died because of toxicity: days 6 and 7
Experimental: as §2
10 rats were assessed for survival up to 4 weeks after treatments. During the study, the kinetics of drug induced toxicities in animals (weight loss/gain, stomatitis, lethality were monitored daily during the first 2 weeks then twice a week thereafter up to 4 weeks in the survival phase. At the end of the survival phase the rats were sacrificed.
as §3

[5] = test system: bone marrow of rat sternum; experiment: Histopathological evaluation of sternum bone marrow; format: in vivo; conditions: Group 8, irinotecan 200 mg/kg i.v.; 5 dead animals
Experimental: (§4) The spleen and bone marrow of sternum of untreated Fischer rats and rats treated with irinotecan with 100, 150 and 200 mg/kg/d×3 alone and in combination with Elsiglutide (1.8 mg/kg/d×4) were examined histologically.
(§5) Histologic analysis using sternum bone marrow and spleen were carried out on day 9 (6 days after the administration of the last irinotecan dose on day 3). Bone marrow and spleen specimens were fixed in buffered formalin (10%) for 48 hours. The entire sternum and spleen were removed during autopsy at the end of the experiments on day 9. The samples were put in 10% buffered formalin for 48 hours in order to get appropriate fixation. After that the sternum was decalcified in a Rapid Decalcifier (RDO) from Apex Engineering Products Corporation (Aurora, Ill., USA) for 17 minutes when the sternum could be bent easily with fingers. When decalcification was complete, samples were taken out of solution and put under cold running water for 60 minutes to remove the decalcification solution containing hydrochloric acid as an active ingredient. Then the decalcified bone marrow and spleen specimen were processed, embedded in paraffin, cut (5 u) and stained conventionally with hematoxylin and eosin (HE). The HE stained slides were used for general orientation and evaluation under light microscope using various magnifications. […]

spleen of Fischer rats = experiment: Histopathological evaluation of spleen; format: in vivo, rat; conditions: Group 8, irinotecan 200 mg/kg i.v.; 5 dead animals
Experimental: as §4, §5

[6] = enzymatic degradation by DPP IV in addition to renal clearance; cited from earlier work
[7] = irinotecan 200 mg/kg/day × 3, 5 dead rats, day 6 and day 7

In the case of `O=c1[nH]cc(F)c(=O)[nH]1` [5-FU, 5-fluorouracil], the “overall tumor growth inhibition” value [1] is reported as 30% and the MTD [2] is reported as 100 mg/kg.

In the case of `CCc1c2c(nc3ccc(OC(=O)N4CCC(N5CCCCC5)CC4)cc13)-c1cc3c(c(=O)n1C2)COC(=O)[C@]3(O)CC` [Irinotecan], the Platelet/Group (Fischer rats [3]; FIG. 1, Day 4) is reported as “did not change”, the RBC/Group (Fischer rats [3]; FIG. 1, Day 4) is reported as “did not change” and the WBC/group (Fischer rats [3]; FIG. 1, Day 4, after each dose of irinotecan) is reported as “decreased”. For the same molecule, the WBC/group (Fischer rats [3]; FIG. 1, Day 9, irinotecan alone treated group) was “did not reach the normal level”, the Platelet/Group count (Fischer rats [3]; FIG. 1, after 200 mg/kg irinotecan) was “decreased” and the “Eosinophils Mean Value” (Fischer rats [3]; [7]) was 0.42. For the same molecule, the “Lymphocytes Mean Value” (Fischer rats [3]; [7]) was 1.55, the “Monocytes Mean Value” (Fischer rats [3]; [7]) was 0.05 and the WBC Mean Value (Fischer rats [3]; [7]) was 2.18 10^3/µL. For the same molecule, the “MCV Mean Value” (Fischer rats [3]; irinotecan 200 mg/kg/day × 3, 5 dead rats, day 6 and day 7, in fL (unit assumed)) was 47.96, the “MCHC Mean Value” (Fischer rats [3]; irinotecan 200 mg/kg/day × 3, 5 dead rats, day 6 and day 7, in g/dL (unit assumed)) was 36.52 and the rats died (Fischer rats [4]; Group 5, irinotecan 150 mg/kg i.v., day 8, 5 rats per group) was “One”. For the same molecule, the “animals died with severe diarrhea” value (Fischer rats [4]; Group 8, irinotecan 200 mg/kg i.v., day 7) was “One”, the “rats in moribund condition with acute diarrhea” value (Fischer rats [4]; Group 8, irinotecan 200 mg/kg i.v., sacrificed before day 9) was 4 and the “rats died because of toxicity” value (Fischer rats [4]; irinotecan 150 mg/kg/d×3) was 10%. The “rats died because of toxicity” value (Fischer rats [4]; irinotecan 200 mg/kg/d×3) was “Fifty”, the “animals which survived treatment” value (Fischer rats [4]; irinotecan 200 mg/kg/d×3 alone or in combination with elsiglutide) was 50% and the “decrease (myelosuppression) in hematopoiesis of sternum bone marrow” value [5] was 95-98%. The “extramedullary hematopoiesis in spleen” value (spleen of Fischer rats) was “did not show any sign of extramedullary hematopoiesis”, the “overall tumor growth inhibition” value [1] was 30% and the MTD [2] was 100 mg/kg.

In the case of Glucagon-like-peptide-2 [GLP-2(1-33)], the half-life [6] is listed as “about 7 minutes”.
